Legend:
PD-1 [1] = test: Immunofluorescence densitometry of PDCD-1 (PD-1) expression in human macrophage-like THP-1 cells; format: cell-based; conditions: 20 μg/ml, 24 hours at 37° C., compared to controls
PD-1 [2] = test: as above; format: cell-based; conditions: for percent increase of PDCD-1 expression: 24 hours at 37° C., compared to controls; for effect on PDCD-1 expression (in words): all concentrations tested, relative to control
Method: In the present study, human macrophage-like THP-1 cells were used to determine the effects of active agents.
Immunofluorescence studies were utilized to explore the effects of an active composition including Type-A polymers on PD-L1 and PD-1 proteins. Doubly linked procyanidin type-A polymers (3% by weight) in a dried extract of bark from C. burmanni was prepared as described (Anderson et al., J. Agric. Food Chem. 2004; 52:65-70), or provided by IN Ingredients Inc. (formerly Integrity Nutraceuticals, Columbia, Tenn., USA) as CINNULIN PF. The dried extract composition was solvated in DMSO and stored at −20° C. until use. The antibodies (anti-PD-L1, anti-PD-1) were all obtained from Santa Cruz Biotech. All other reagents used were of the highest grade available in commercial products.
(§1) Human monocytic THP-1 cells were purchased from ATCC, Manassas, Va. and were maintained in RPMI culture medium supplemented with 10% heat inactivated fetal bovine serum, 10 mM Hepes, 0.1 mM MEM non-essential amino acids, 1 mM sodium pyruvate, and […] penicillin/streptomycin in an atmosphere containing 5% CO2 and 95% air at 37° C. THP-1 monocytes were differentiated in macrophages by 48 hour incubation with phorbol 12-myristate 13-acetate (PMA, Sigma, P8139) in RPMI media at a concentration of 10 ng/mL. Cells were incubated with or without the treatment compounds at dosages indicated below at 37° C. for 24 hours. In certain treatment with LPS studies, the cells were incubated in fresh F-12 K medium supplemented with 10 μg/mL LPS and the type-A polymers at a concentration (from 3% extract) of 0 μg/ml, 5 μg/ml, 10 μg/ml, 25 μg/ml, or 50 μg/ml for 24 h at 37° C. In other treatment with LPS studies, the cells were incubated in fresh F-12 K medium supplemented with 10 μg/mL LPS and cinnamtannin D-1 at a concentration 2.5 μg/ml, 5 μg/ml, 10 μg/ml or 25 μg/ml for 24 h at 37° C.
(§2) Cells were rinsed with ice-cold PBS and fixed with 4% paraformaldehyde for 10 min at room temperature, followed by permeabilization with 0.3% Triton x-100 for 10 min. After being washed with PBS three times, cells were incubated for 1 h in PBS containing 10% normal goat serum blocking solution. The cells were subjected to immunofluorescence staining with the specific antibodies (human macrophage-like THP-1 cells analyzed for PD-1 (Santa Cruz Biotech)) overnight at 4° C. The cells were then washed with cold PBS three times for 3 min each, and incubated with Alexa-labeled secondary antibodies (Invitrogen) at room temperature for 1 h. The cells were examined by fluorescence microscopy (a Nikon TE2000-S microscope, Nikon, Tokyo, Japan). For cell counts, five to ten random fields with approximately similar density of cells in each field were selected for analysis in each plate. Fluorescence intensities (with pixel values exceeding five times the standard deviation of the background) from these images were semi-quantitatively analyzed by densitometry (ImageJ software, NIH Image).

PD-L1 [3] = test: Immunofluorescence densitometry of PD-L1 expression in rat C6 glioma cells; format: cell-based; conditions: for percent inhibition of PD-L1 expression: 24 h, compared to controls; for effect on PD-L1 expression (in words): all concentrations tested
Method: (§3) Immunofluorescence studies were utilized to explore the effects of an active composition including Type-A polymers on PD-L1 proteins. Purified cinnamtannin B1 and cinnamtannin D1 are obtained from Planta Analytica (New Milford, Conn.). A water extract of cinnamon with at least 3% by weight type-A polymers was obtained from IN Ingredients sold as CINNULIN PF. Each dried material was solvated in DMSO and stored at −20° C. until use. The antibodies (anti-PD-L1) were all obtained from Santa Cruz Biotech. All other reagents used were of the highest grade available in commercial products.
(§4) C6 glioma cells (CCL-107) were purchased from American Type Culture Collection (ATCC; Manassas, Va.). Cell cultures were grown in F-12 K medium (Gibco/Invitrogen) supplemented with 10% horse serum and 2% fetal bovine serum and maintained in a humidified atmosphere containing 5% CO2 and 95% air at 37° C. Cultures were grown to 85% confluency in 75 mm flasks, and cells were subcultured by trypsinization of subconfluent cultures using 0.05% trypsin with EDTA. C6 glioma cells were seeded at a density of 0.5×10^6 cells per 35 mm dish, and cultured for two days. Cells were grown to confluence during the experimental period. Three studies were performed: 1) no other treatment of the cells; 2) treatment with LPS (10 μg/mL); and 3) treatment with TNF-α (10 ng/mL). In some studies, cells were incubated in fresh F-12K medium supplemented with either cinnamtannin D1 (at a concentration of 0 μg/ml, 5 μg/ml, 10 μg/ml, 20 μg/ml, 25 μg/ml, or 50 μg/ml) or cinnamtannin B1 (at a concentration of 0 μg/ml, 5 μg/ml, 10 μg/ml, 20 μg/ml, 25 μg/ml, or 50 μg/ml) for 24 h at 37° C. In certain treatment with LPS studies, the cells were incubated in fresh F-12 K medium supplemented with 10 μg/mL LPS or incubated in fresh F-12 K medium supplemented with 10 μg/mL LPS and cinnamtannin D1 at a concentration 10 μg/ml or 50 μg/ml (5 μg/ml and 25 μg/ml were not tested) for 24 h at 37° C. In certain treatment with TNF-α studies, the cells were incubated in fresh FK-12 medium supplemented with 10 ng/mL TNF-α and cinnamtannin D1 at a concentration 10 μg/ml, 20 μg/ml or 50 μg/ml (5 μg/ml was not tested) for 24 h at 37° C.
as §2, with “(Rat C6 glioma cells studied for PD-L1 (Santa Cruz Biotech); human” for “(human”

PD-L1 [4] = test: LPS-induced overexpression of PD-L1 in rat C6 glioma cells (immunofluorescence densitometry); format: cell-based; conditions: LPS 10 μg/ml; for percent inhibition of LPS-induced overexpression of PD-L1: 24 h, rat C6 glioma cells
Method: as §3
C6 glioma cells (CCL-107) were purchased from American Type Culture Collection (ATCC; Manassas, Va.). Cell cultures were grown in F-12 K medium (Gibco/Invitrogen) supplemented with 10% horse serum and 2% fetal bovine serum and maintained in a humidified atmosphere containing 5% CO2 and 95% air at 37° C. Cultures were grown to 85% confluency in 75 mm flasks, and cells were subcultured by trypsinization of subconfluent cultures using 0.05% trypsin with EDTA. C6 glioma cells were seeded at a density of 0.5×10^6 cells per 35 mm dish, and cultured for two days. Cells were grown to confluence during the experimental period. Three studies were performed: 1) no other treatment of the cells; 2) treatment with LPS (10 μg/mL); and 3) treatment with TNF-α (10 ng/mL). […]
(§5) Cells were rinsed with ice-cold PBS and fixed with 4% paraformaldehyde for 10 min at room temperature, followed by permeabilization with 0.3% Triton x-100 for 10 min. […] The cells were subjected to immunofluorescence staining with the specific antibodies (Rat C6 glioma cells studied for PD-L1 (Santa Cruz Biotech); human macrophage-like THP-1 cells analyzed for PD-1 (Santa Cruz Biotech)) overnight at 4° C. […] The cells were examined by fluorescence microscopy (a Nikon TE2000-S microscope, Nikon, Tokyo, Japan). […] Fluorescence intensities (with pixel values exceeding five times the standard deviation of the background) from these images were semi-quantitatively analyzed by densitometry (ImageJ software, NIH Image).

PD-1 [5] = test: Immunofluorescence densitometry of LPS-induced PDCD-1 down expression in human macrophage-like THP-1 cells; format: cell-based; conditions: LPS 10 μg/ml; for percent inhibition of LPS-induced PDCD-1 down expression: 24 h
Method: as §1, §2

PD-L1 [6] = test: TNF-α-induced overexpression of PD-L1 in rat C6 glioma cells (immunofluorescence densitometry); format: cell-based; conditions: TNF-α 10 ng/ml; for percent inhibition of TNF-α-induced overexpression of PD-L1: 24 h, rat C6 glioma cells
Method: as §3
as §4, with “In certain treatment with TNF-α studies, the cells were incubated in fresh FK-12 medium supplemented with 10 ng/mL TNF-α and cinnamtannin D1 at a concentration 10 μg/ml, 20 μg/ml or 50 μg/ml (5 μg/ml was not tested) for 24 h at 37° C.” left out
as §5

PD-L1 [7] = conditions: treatment for metastatic melanoma (Laubli et al. 2015); cited from earlier work

| Molecule | percent increase of PDCD-1 expression (PD-1 [1]) | percent increase of PDCD-1 expression (PD-1 [2]; 2.5 μg/ml) | percent increase of PDCD-1 expression (PD-1 [2]; 5 μg/ml) | percent increase of PDCD-1 expression (PD-1 [2]; 10 μg/ml) | effect on PDCD-1 expression (in words) (PD-1 [2]) | percent inhibition of PD-L1 expression (PD-L1 [3]; 5 μg/ml) | percent inhibition of PD-L1 expression (PD-L1 [3]; 10 μg/ml) | percent inhibition of PD-L1 expression (PD-L1 [3]; 25 μg/ml) | percent inhibition of PD-L1 expression (PD-L1 [3]; 50 μg/ml) | effect on PD-L1 expression (in words) (PD-L1 [3]) | percent increase of PDCD-1 expression (PD-1 [2]; 50 μg/ml) | further results |
| --- | --- | --- | --- | --- | --- | --- | --- | --- | --- | --- | --- | --- |
| Oc1cc(O)c2c(c1)O[C@@]1(c3ccc(O)c(O)c3)Oc3cc(O)c4c(c3[C@@H]2C1O)OC(c1ccc(O)c(O)c1)[C@H](O)C4c1c(O)cc(O)c2c1O[C@H](c1ccc(O)c(O)c1)[C@H](O)C2 (some centres unmarked) [cinnamtannin B-1, cinnamtannin B1] | 62% | 21% | 42% | 83% | significantly enhanced | 35.7% | 60.8% | 54.9% | 41.9% | significantly inhibited |  |  |
| Oc1cc(O)c2c(c1)O[C@@]1(c3ccc(O)c(O)c3)Oc3cc(O)c4c(c3[C@@H]2[C@H]1O)O[C@H](c1ccc(O)c(O)c1)[C@H](O)[C@H]4c1c(O)cc(O)c2c1O[C@H](c1ccc(O)c(O)c1)[C@@H](O)C2 [cinnamtannin D-1, (2R,3R,4S,8S,14R, 15R)-2,8-bis(3,4-dihydroxyphenyl)-4-[(2R,3S)-2-(3,4-dihydroxyphenyl)-3,5,7-trihydroxy-3,4-dihydro-2H-1-benzopyran-8-yl]-3,4-dihydro-2H,8H,14H-8,14-methano-1,7,9-trioxabenzo[6,7]cycloocta[1,2-a]naphthalene-3,5,11,13,15-pentol] | 71% | 18% | 45% | 87% | significantly enhanced | 39.9% | 66.8% | 58.1% | 43.6% | significantly inhibited |  | percent inhibition of LPS-induced overexpression of PD-L1 (PD-L1 [4]; 10 μg/ml): 48.9%; percent inhibition of LPS-induced overexpression of PD-L1 (PD-L1 [4]; 50 μg/ml): 53.0%; effect on LPS-induced overexpression of PD-L1 (in words) (PD-L1 [4]; all concentrations tested): significantly inhibited; percent inhibition of LPS-induced PDCD-1 down expression (PD-1 [5]; 2.5 μg/ml): 42%; percent inhibition of LPS-induced PDCD-1 down expression (PD-1 [5]; 5 μg/ml): 98%; percent inhibition of LPS-induced PDCD-1 down expression (PD-1 [5]; 10 μg/ml): 81%; percent inhibition of LPS-induced PDCD-1 down expression (PD-1 [5]; 25 μg/ml): 48%; effect on LPS-induced PD-1 down-regulation (in words) (PD-1 [5]; all concentrations tested): significantly improved; percent inhibition of TNF-α-induced overexpression of PD-L1 (PD-L1 [6]; 10 μg/ml): 32.0%; percent inhibition of TNF-α-induced overexpression of PD-L1 (PD-L1 [6]; 20 μg/ml): 42.2%; percent inhibition of TNF-α-induced overexpression of PD-L1 (PD-L1 [6]; 50 μg/ml): 43.9%; effect on TNF-α-induced overexpression of PD-L1 (in words) (PD-L1 [6]; all concentrations tested (10, 20, 50 μg/ml)): significantly inhibited |
| O=C(O)c1cc(O)c(O)c(O)c1 [garlic acid] | 71% |  |  | 47% | significantly enhanced |  |  |  |  |  | 52% |  |
| O=c1c(O)c(-c2ccc(O)c(O)c2)oc2cc(O)cc(O)c12 [quercetin] | 78% |  |  | 33% | significantly enhanced |  |  |  |  |  | 57% |  |
| C[C@@H]1O[C@@H](OC[C@H]2O[C@@H](Oc3c(-c4ccc(O)c(O)c4)oc4cc(O)cc(O)c4c3=O)[C@H](O)[C@@H](O)[C@@H]2O)[C@H](O)[C@H](O)[C@H]1O [rutin] | 48% |  |  | 17% |  |  |  |  |  |  | 43% |  |
| pembrolizumab: antibody therapeutic cited for targeted inhibition of PD-L1 with cardiac side effect |  |  |  |  |  |  |  |  |  |  |  | cardiac side effect associated with treatment (PD-L1 [7]): acute heart failure due to autoimmune myocarditis |

Reference: US10842774B2, “Inhibited expression of PD-L1 and enhanced expression of PD-1” (IN Ingredients, Inc., priority 2017, dated 2020)
